In ChEMBL document CHEMBL1800071, “Switching reversibility to irreversibility in glycogen synthase kinase 3 inhibitors: clues for specific design of new compounds” (J Med Chem, 2011) one finds IC50, inhibition and Activity data, which are given here for 29 molecules.

Activity calls are given as the source filed them. The calls are words filed in the database; no cut-off is given here. Some results are limits rather than exact numbers.

Test [1] concerns the target T1, Glycogen synthase kinase-3 beta (Homo sapiens, UniProt P49841). In words: Inhibition of human recombinant GSK3-beta using prephosphorylated polypeptide substrate after 30 mins by Glow-type luminescence assay in presence of 1 uM ATP.
Target sequence in this assay (P49841 whole entry): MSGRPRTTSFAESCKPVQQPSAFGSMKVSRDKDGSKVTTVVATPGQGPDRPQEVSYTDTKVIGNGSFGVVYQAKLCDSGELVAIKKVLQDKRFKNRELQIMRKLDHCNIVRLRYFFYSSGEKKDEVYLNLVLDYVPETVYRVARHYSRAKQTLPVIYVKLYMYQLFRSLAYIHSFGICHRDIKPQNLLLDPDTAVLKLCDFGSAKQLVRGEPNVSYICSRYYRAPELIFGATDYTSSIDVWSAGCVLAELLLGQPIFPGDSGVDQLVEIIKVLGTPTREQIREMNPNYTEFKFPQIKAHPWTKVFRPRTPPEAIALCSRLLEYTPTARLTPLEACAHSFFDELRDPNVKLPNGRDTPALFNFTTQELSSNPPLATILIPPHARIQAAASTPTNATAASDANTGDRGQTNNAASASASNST
In test [2] the target is T1, Glycogen synthase kinase-3 beta. In words: Irreversible inhibition of human recombinant GSK3-beta using prephosphorylated polypeptide substrate preincubated with enzyme for 5 to 10 mins measured after 30 mins by Glow-type luminescence assay in presence of 1 uM ATP.
Target sequence in this assay (P49841 whole entry, looked up): as the sequence (P49841 whole entry) above
Test [3] has the same target. Put plainly: Reversible inhibition of human recombinant GSK3-beta using prephosphorylated polypeptide substrate preincubated with enzyme for 5 to 10 mins measured after 30 mins by Glow-type luminescence assay in presence of 1 uM ATP.
Target sequence in this assay (P49841 whole entry, looked up): as the sequence (P49841 whole entry) above
Test [4] has the same target. Put plainly: Inhibition of GSK3-beta using GS1 as substrate and [gamma-32P]ATP after 20 mins by radiometric assay.
Target sequence in this assay (P49841 whole entry): as above
In test [5] the target is Tyrosine-protein kinase ABL1 (Mus musculus) (UniProt P00520). In words: Inhibition of mouse recombinant Abl expressed in Escherichia coli assessed as phosphopoly Gt formation using poly Gt as substrate at 10 uM by fluorescence polarization method. (In general: Polarisation of emitted light reports the rotation of a fluorescent probe.)
Sequence of Tyrosine-protein kinase ABL1 (Mus musculus) (P00520 whole entry): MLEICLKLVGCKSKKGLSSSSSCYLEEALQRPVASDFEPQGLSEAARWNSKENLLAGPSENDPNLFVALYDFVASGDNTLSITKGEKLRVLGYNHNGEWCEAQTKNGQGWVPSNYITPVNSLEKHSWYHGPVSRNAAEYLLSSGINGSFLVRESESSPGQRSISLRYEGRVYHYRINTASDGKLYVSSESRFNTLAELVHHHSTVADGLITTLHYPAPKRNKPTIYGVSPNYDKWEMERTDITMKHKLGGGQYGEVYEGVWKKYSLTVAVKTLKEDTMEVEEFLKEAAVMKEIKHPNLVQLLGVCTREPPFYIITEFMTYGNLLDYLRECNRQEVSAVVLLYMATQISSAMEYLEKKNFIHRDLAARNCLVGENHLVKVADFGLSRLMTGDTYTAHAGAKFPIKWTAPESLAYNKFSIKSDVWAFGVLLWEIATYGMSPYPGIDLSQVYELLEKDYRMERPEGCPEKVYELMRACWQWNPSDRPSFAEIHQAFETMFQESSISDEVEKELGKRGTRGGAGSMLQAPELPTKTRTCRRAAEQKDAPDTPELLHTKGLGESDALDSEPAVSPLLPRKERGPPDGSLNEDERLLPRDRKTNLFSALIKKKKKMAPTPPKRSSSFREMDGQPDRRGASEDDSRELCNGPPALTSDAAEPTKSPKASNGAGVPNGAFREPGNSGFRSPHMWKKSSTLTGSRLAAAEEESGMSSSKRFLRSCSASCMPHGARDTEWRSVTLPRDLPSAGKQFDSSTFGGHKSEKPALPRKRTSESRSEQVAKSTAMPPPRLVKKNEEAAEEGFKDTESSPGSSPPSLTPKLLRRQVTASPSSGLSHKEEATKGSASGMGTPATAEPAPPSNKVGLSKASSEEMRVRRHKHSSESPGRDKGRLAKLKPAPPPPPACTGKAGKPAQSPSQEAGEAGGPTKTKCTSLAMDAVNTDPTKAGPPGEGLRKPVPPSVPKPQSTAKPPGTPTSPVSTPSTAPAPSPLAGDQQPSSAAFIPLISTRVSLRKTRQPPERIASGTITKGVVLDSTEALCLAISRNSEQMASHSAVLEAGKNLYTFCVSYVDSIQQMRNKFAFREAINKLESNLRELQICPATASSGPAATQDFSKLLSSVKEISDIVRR
In test [6] the target is Epidermal growth factor receptor (Homo sapiens) (UniProt P00533). In words: Inhibition of EGFR kinase in human A431 cells using poly GAT as substrate and [gamma-33P]ATP at 10 uM by scintillation counting. The note with it: A-431. It counts as cell-based.
Sequence of Epidermal growth factor receptor (Homo sapiens) (P00533 whole entry): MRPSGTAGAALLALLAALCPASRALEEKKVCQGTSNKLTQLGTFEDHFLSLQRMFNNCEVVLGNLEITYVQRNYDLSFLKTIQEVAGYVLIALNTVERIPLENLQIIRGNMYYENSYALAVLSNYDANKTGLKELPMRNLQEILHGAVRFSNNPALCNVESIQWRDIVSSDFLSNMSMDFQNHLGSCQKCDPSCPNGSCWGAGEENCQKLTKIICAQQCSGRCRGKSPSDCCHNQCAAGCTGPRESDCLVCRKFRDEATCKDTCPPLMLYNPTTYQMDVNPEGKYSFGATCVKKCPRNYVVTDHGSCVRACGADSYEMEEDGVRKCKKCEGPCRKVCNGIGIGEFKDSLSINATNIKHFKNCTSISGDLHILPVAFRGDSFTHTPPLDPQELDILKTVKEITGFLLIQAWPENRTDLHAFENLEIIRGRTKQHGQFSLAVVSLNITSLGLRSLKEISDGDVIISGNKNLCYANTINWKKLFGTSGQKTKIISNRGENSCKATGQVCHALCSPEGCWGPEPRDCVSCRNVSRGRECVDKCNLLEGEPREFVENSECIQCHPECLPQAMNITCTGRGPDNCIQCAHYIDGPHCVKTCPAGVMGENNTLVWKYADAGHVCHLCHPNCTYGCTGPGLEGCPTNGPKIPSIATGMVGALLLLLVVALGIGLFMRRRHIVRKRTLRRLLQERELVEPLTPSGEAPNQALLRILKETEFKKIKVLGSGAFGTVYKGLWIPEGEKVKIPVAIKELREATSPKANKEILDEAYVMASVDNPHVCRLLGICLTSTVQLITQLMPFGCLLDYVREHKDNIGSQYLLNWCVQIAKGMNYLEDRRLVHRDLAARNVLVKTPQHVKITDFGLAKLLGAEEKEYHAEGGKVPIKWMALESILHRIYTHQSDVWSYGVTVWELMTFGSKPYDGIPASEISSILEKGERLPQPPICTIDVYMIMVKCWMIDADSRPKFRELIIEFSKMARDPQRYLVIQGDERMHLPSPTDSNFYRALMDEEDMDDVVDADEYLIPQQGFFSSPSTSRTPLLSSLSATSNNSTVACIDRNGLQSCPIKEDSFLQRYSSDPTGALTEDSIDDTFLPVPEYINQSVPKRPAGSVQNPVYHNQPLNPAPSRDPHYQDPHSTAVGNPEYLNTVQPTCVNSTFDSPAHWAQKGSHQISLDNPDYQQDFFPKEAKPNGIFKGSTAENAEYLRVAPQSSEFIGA
Test [7] deals with Insulin receptor (Homo sapiens) (UniProt P06213). In words: Inhibition of human recombinant IRK using poly GT as substrate and [gamma-33P]ATP at 10 uM by scintillation counting.
Sequence of Insulin receptor (Homo sapiens) (P06213 28-758 limits assumed): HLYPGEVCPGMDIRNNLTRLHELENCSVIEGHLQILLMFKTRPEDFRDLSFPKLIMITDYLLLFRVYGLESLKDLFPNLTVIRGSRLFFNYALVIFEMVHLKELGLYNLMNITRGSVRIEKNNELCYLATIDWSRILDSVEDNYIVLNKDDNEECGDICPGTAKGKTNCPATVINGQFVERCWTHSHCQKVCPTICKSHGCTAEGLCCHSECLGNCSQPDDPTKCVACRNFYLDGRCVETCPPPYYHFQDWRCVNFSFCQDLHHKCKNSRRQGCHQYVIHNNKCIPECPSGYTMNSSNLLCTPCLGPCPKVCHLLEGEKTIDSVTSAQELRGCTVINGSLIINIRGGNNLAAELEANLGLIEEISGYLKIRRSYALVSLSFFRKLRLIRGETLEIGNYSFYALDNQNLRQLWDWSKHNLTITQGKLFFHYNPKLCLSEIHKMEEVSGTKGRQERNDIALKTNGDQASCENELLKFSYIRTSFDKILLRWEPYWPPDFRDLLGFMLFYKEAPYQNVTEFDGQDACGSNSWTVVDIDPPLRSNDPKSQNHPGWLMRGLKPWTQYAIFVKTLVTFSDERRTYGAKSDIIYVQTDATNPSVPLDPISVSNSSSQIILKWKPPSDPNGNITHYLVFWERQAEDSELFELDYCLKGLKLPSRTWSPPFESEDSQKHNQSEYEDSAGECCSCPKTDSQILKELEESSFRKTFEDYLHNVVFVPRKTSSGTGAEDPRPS
Sequence of Insulin receptor (Homo sapiens) (P06213 763-1382 limits assumed): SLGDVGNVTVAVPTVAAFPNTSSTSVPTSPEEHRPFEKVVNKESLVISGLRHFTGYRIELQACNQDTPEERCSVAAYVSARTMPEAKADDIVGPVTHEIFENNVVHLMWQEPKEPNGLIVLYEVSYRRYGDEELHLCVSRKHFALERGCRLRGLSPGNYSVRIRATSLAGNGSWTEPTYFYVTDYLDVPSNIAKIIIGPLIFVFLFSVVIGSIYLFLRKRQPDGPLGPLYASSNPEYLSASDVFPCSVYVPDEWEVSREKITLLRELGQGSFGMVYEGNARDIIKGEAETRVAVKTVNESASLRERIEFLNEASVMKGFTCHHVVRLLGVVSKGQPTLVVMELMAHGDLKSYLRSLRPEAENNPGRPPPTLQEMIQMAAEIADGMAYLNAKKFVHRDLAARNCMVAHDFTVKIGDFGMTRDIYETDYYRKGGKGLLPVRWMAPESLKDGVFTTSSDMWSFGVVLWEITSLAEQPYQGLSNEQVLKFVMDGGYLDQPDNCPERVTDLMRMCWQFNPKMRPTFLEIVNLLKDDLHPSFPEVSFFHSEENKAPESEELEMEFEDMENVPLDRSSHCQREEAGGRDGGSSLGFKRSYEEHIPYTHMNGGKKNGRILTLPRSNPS
The target in test [8] is Mitogen-activated protein kinase 1 (Rattus norvegicus) (UniProt P63086). Put plainly: Inhibition of rat recombinant ERK42 expressed in Escherichia coli using MBP as substrate and [gamma-33P]ATP at 10 uM by scintillation counting.
The target in test [9] is Dual specificity mitogen-activated protein kinase kinase 1 (Oryctolagus cuniculus) (UniProt P29678). In words: Inhibition of rabbit recombinant MEK1 expressed in Escherichia coli using inactivated MAP kinase as substrate and [gamma-33P]ATP at 10 uM by scintillation counting.
Sequence of Dual specificity mitogen-activated protein kinase kinase 1 (Oryctolagus cuniculus) (P29678 whole entry): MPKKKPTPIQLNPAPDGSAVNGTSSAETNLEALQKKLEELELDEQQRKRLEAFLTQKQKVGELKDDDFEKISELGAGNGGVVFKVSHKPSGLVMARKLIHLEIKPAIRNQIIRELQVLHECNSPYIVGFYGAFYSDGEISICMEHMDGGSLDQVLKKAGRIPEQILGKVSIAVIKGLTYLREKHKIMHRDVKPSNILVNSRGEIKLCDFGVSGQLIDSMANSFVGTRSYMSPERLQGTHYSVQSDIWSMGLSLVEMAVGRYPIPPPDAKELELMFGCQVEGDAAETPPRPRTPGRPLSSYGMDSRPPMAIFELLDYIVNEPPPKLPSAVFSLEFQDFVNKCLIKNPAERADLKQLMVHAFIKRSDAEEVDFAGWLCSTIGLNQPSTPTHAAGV
The species named for the next test is Bos taurus. In words: Inhibition of bovine thymus protein kinase p56 using poly GT as substrate and [gamma-33P]ATP at 10 uM by scintillation counting.
For test [10], the target named is Adrenergic receptor alpha-2 (Rattus norvegicus) (UniProt P22086+P19328+P22909). Put plainly: Displacement of [3H]-RX821002 from adrenergic A2 receptor in rat cerebral cortex at 10 uM. Type of test: tissue-based.
In test [11] the target is D(2) dopamine receptor (Homo sapiens) (UniProt P14416). In words: Displacement of [3H]spiperone form human recombinant D2 receptor expressed in CHO cells at 10 uM. Type of test: cell-based. (Displacement assays read how much labelled ligand stays bound in the presence of the test substance.)
The target of test [12] is D(3) dopamine receptor (Homo sapiens) (UniProt P35462). In words: Displacement of [3H]spiperone form human recombinant D3 receptor expressed in CHO cells at 10 uM. It counts as cell-based.
Sequence of D(3) dopamine receptor (Homo sapiens) (P35462 whole entry): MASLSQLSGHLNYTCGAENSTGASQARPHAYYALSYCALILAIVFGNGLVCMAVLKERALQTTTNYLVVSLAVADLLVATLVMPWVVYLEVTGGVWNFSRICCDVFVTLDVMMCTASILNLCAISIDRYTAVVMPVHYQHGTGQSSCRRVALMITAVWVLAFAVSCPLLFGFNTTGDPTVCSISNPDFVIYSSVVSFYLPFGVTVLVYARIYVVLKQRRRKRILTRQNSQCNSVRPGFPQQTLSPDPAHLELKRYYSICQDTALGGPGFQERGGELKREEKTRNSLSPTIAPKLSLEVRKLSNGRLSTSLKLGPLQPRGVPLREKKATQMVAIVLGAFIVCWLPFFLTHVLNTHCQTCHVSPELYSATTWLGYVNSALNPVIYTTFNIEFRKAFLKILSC
For test [13], the species on record is Rattus norvegicus. Put plainly: Displacement of [3H]-AMPA from AMPA glutaminergic receptor in rat cerebral cortex at 10 uM. It counts as tissue-based.
The species entered for test [14] is Rattus norvegicus. Put plainly: Displacement of [3H]-CGP39653 from NMDA glutaminergic receptor in rat cerebral cortex at 10 uM. It counts as tissue-based.
Test [15] has as its target Muscarinic acetylcholine receptor (Rattus norvegicus) (UniProt P08482+P08483+P08485+P08911+P10980). In words: Displacement of [3H]-QNB from muscarinic receptor in rat cerebral cortex at 10 uM. It counts as tissue-based.
The species entered for test [16] is Rattus norvegicus. Put plainly: Displacement of [3H]cytisine from alpha-BGTX-insensitive neuronal nicotinic receptor in rat cerebral cortex at 10 uM. Type of test: tissue-based.
The species entered for test [17] is Rattus norvegicus. Put plainly: Displacement of [125I]-alpha-bungarotoxin from alpha-BGTX-sensitive neuronal nicotinic receptor in rat cerebral cortex at 10 uM. Type of test: tissue-based.
For test [18], the species on record is Rattus norvegicus. Put plainly: Displacement of [3H]serotonine from 5-HT receptor in rat cerebral cortex at 10 uM. Type of test: tissue-based.
For test [19], the target named is Proto-oncogene tyrosine-protein kinase Src (Homo sapiens) (UniProt P12931). Put plainly: Inhibition of Src kinase at 10 uM.
Test [20] in a line: Inhibition of protein kinase A at 100 uM.
The subject of test [21] is Calcium/calmodulin-dependent protein kinase type II (Rattus norvegicus). Put plainly: Inhibition of rat brain CAM kinase 2 using autocamtide as substrate and [gamma-33P] at 10 uM by scintillation counting.
The target of test [22] is T1, Glycogen synthase kinase-3 beta. In words: Covalent binding affinity to human recombinant GSK3-beta by MALDI-TOF analysis.
Target sequence in this assay (P49841 whole entry, looked up): as the sequence (P49841 whole entry) above
A short description of test [23]: Inhibition of GSK3 in granule cerebellar neurons assessed as […] of tau phosphorylation at 25 uM after 16 hrs by Western blot analysis.
The nature of test [24]: Inhibition of GSK3 in granule cerebellar neurons assessed as decrease of tau phosphorylation at Ser396 at 25 uM after 16 hrs by Western blot analysis.

The term IC50 denotes the concentration at which inhibition is half-maximal. The inhibition is the share of the control response that was lost under treatment. On to `O=C(CBr)C1=C(c2c[nH]c3ccccc23)C(=O)NC1=O`, for which the IC50 in test [1] was found to be 47 nM. In [2], the inhibition result was “Active”.

`CC(=O)C1=C(c2c[nH]c3ccccc23)C(=O)NC1=O`: the IC50 in test [1] is 4470 nM. Further, the inhibition entry in test [3] was “Active”.

As to `NCC(=O)c1ccc(Br)cc1`, 100 µM corresponded to half-maximal inhibition in test [4] (IC50).

Regarding `O/N=C(\CBr)c1ccc(Br)cc1`, the IC50 in test [4] is more than 100 µM.

As to `COc1ccc(-n2cnc3cc(C(C)=O)ccc32)cc1`, the 50% inhibitory concentration (IC50) in test [1] is more than 10000 nM.

`O=C(CCl)c1ccc(Cl)cc1`: the inhibition (in [5]; in [6]; in [7]; in test [8]; in test [9]; in the test listed under Bos taurus) was less than 10% each time. The inhibition is less than 10% in test [10]; less than 10% in [11]; less than 10% in [12]; less than 10% in the test filed under Rattus norvegicus [13]; 15% in the test filed under Rattus norvegicus [14]; less than 10% in test [15]. Besides, the inhibition was less than 10% in the test filed under Rattus norvegicus [16]; less than 10% in the test filed under Rattus norvegicus [17]; less than 10% in the test filed under Rattus norvegicus [18]; 19% in [19]; 16% in test [21]. Moreover, the inhibition entry in [20] was “inactive”.

For `Nc1c(Br)cc(C(=O)C(Br)Br)cc1Br`, the IC50 in test [4] was 0.5 µM.

For `CC(=O)n1cnc2c(N)ncnc21`, in [1], the IC50 was more than 50000 nM.

Take `O=C(CSc1ccccc1)c1ccc(Br)cc1`: the half-inhibitory concentration (IC50) in test [4] was more than 100 µM.

`CC(=O)OCC(=O)c1ccc(Br)cc1` showed an IC50 in test [4] of more than 100 µM.

Take `O=C(CSCc1ccccc1)c1ccc(Br)cc1`: in test [4], the IC50 was more than 10 µM.

Consider `CC(=O)C1=C(c2cn(C)c3ccccc23)C(=O)NC1=O`, for which the IC50 in test [1] was 890 nM. Besides, the result in [22] was Active. Further, the inhibition entry in test [3] was “Active”.

On to `Nc1ncnc2c1ncn2C(=O)CCl`, for which the IC50 in test [1] was determined as 13400 nM.

Turning to `CCSCC(=O)c1ccc(Br)cc1`, in test [4], the IC50 was more than 10 µM.

As to `CO/N=C(\CBr)c1ccc(Br)cc1`, the IC50 in test [4] is 50 µM.

Take `O=C(c1ccc(I)cc1)C(Br)Br`: the IC50 in test [4] is 2 µM.

As to `Cn1cc(C2=C(C(=O)CBr)C(=O)NC2=O)c2ccccc21`, the half-inhibitory concentration (IC50) in test [1] was 5 nM. Further, the outcome in test [22] was Active. The inhibition entry in test [2] was “Active”.

As for `COc1ccc(-n2cnc3cc(C(=O)CBr)ccc32)cc1`, in test [1], the IC50 was 580 nM. The inhibition entry in test [2] was “Active”.

For the molecule `O=C(CO)c1ccc(Br)cc1`, the IC50 in test [4] is more than 100 µM.

On to `[Cl-].[Li+]`, for which the inhibition entry in test [23] and in test [24] was “Active” in each case.

In [4], `[O-][S+](CCl)c1ccc(Br)cc1` (stereo unspecified) displayed an IC50 of more than 100 µM.

As to `O=C(CN1C(=O)c2ccccc2C1=O)c1ccc(Br)cc1`, the IC50 in [4] was 100 µM.

`O=C(c1ccc(C(F)(F)F)cc1)C(Br)Br` came in with an IC50 in [4] of 5 µM.

For the molecule `O=C(CBr)c1ccc(Br)cc1`, the inhibition in [5] is less than 10%; in test [6], 18%; in test [7] it was less than 10%; in test [8] it was less than 10%; in test [9], less than 10%; in the test listed under Bos taurus, 29%. Besides, the inhibition (in test [10]; in [11]; in [12]; in the test filed under Rattus norvegicus [13]; in the test listed under Rattus norvegicus [14]; in [15]) was less than 10% in each case. Further, the inhibition is 16% in the test filed under Rattus norvegicus [16]; less than 10% in the test filed under Rattus norvegicus [17]; less than 10% in the test listed under Rattus norvegicus [18]; 38% in test [19]; less than 10% in [21]. For the same molecule, the inhibition result in test [20] is “inactive”.

In test [4], `N#Cc1cccc(C(=O)C(Br)Br)c1` yielded an IC50 of 1 µM.

With `O=C(c1ccccn1)C(Br)Br`, the concentration for half-maximal inhibition (IC50) in [4] worked out at 2.5 µM.

In [4], `N#Cc1ccc(C(=O)C(Br)Br)cc1` displayed an IC50 of 1.5 µM.

In the case of `O=C(CBr)c1ccc(C(F)(F)F)cc1`, in test [4], the IC50 came to 5 µM.

`O=C(CBr)c1ccc(N2CCOCC2)cc1` came in with an IC50 in test [4] of 6 µM.
